Measured values reported in PMC5958214, “Chloroplastic Serine Hydroxymethyltransferase From Medicago truncatula: A Structural Characterization” (Frontiers in Plant Science, 2018).

What was measured:
[1] = molecular target: T1, MtSHMT3 (chloroplastic serine hydroxymethyltransferase) (Medicago truncatula, UniProt G7ILW0); assay: X-ray crystallography, […] A; type: binding
T1 construct: gene MTR_2g018290; residues 82-533, targeting peptide removed (N-truncated at F82, begins FLDYGLSEA); His6-TEV tag cut, Ser-Asn-Ala linker left; E. coli BL21 Gold, pMCSG68; homotetramer, ~197 kDa theoretical; active site shared within tight dimer
T1 sequence (G7ILW0 entry or part of it): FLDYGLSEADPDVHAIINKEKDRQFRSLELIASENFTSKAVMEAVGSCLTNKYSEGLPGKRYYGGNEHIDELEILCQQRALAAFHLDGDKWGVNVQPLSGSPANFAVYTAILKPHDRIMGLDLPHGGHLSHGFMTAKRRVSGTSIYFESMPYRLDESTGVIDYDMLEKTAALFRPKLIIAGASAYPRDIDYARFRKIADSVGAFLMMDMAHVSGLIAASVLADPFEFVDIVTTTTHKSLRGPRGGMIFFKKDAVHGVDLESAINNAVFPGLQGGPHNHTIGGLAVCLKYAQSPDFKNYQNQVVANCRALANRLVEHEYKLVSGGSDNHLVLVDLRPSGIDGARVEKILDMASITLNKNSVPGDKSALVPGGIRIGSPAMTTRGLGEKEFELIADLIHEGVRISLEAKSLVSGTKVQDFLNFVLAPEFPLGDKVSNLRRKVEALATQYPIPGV

[2] = molecular target: T1, MtSHMT3 (chloroplastic serine hydroxymethyltransferase); assay: X-ray crystallography, […] A; type: binding; conditions: covalent; internal aldimine (Schiff base) with K318; full occupancy in chains A and B; crystals from 55% Tacsimate pH 7.0; PLP from expression culture
[3] = molecular target: chloroplast-targeted serine hydroxymethyltransferase from Medicago truncatula (MtSHMT3), residues 82-533 (Medicago truncatula); assay: crystal structure; three non-isomorphous crystal forms (holo/apo in Tacsimate pH 7.0; Ser-soaked in MES pH 6.5, PEG 3350, ammonium acetate; selenourea-soaked); assemblies analysed with PISA
[4] = molecular target: chloroplast-targeted serine hydroxymethyltransferase from Medicago truncatula (MtSHMT3), residues 82-533 (Medicago truncatula); assay: SEC; HiLoad Superdex 200 16/60; 25 mM Hepes-NaOH pH 7.5, 100 mM KCl, 50 mM NaCl, 1 mM TCEP; standard curve from thyroglobulin, gamma-globulin, ovalbumin and myoglobin

In the case of `NCC(=O)O` [Gly, glycine], the “X-ray crystallography, 1.91 A” value ([1]; Ser-soaked crystal, covalent PLP-Gly external aldimine in chains B and F, free Gly with PLP internal aldimine in chains E and H, no tetrahydrofolate) is reported as “PLP-Gly external aldimine (chains B and F), and PLP internal aldimine with free Gly”.

`Cc1ncc(COP(=O)(O)O)c(C=O)c1O` [PLP, pyridoxal 5′-phosphate] was tested, and the “X-ray crystallography, 1.74 A” value [2] was “two protein chains (A and B) contain the PLP bound as a Schiff base internal aldimine”.

With `N[C@@H](CO)C(=O)O` [Ser, L-serine] the “X-ray crystallography, 1.91 A” value ([1]; covalent, PLP-Ser external aldimine in chains A and D, crystals soaked with 200 mM Ser for 2 h, pH 6.5, no tetrahydrofolate) was “PLP-Ser external aldimine (chains A and D)”.

“chloroplast-targeted serine hydroxymethyltransferase from Medicago truncatula (MtSHMT3), residues 82-533 (enzyme)” showed a stoichiometry N [3] of 4 and a stoichiometry N [4] of 4.
